Tests used:
[1] = molecular target: human dopamine receptor type 2, long variant (hD2L) (Homo sapiens (Human), UniProt P14416); experiment: [3H]-Spiperone binding assay at hD2 recombinant receptor (CHO-Gα16-hD2L membranes)
Experimental: [^3H]-Spiperone Binding Assay at hD2 Recombinant Receptor CHO cells stably expressing human dopamine receptor type 2, long variant (hD2L), coupled to Gα16 protein (CHO-Gα16-hD2L) were re-suspended in 20 mM HEPES, 2 mM EDTA (pH 7.4), homogenised and centrifuged at 40,000 g (20 min, 4° C.). After re-suspension, homogenization and centrifugation as above, the final pellet was re-suspended in 20 mM HEPES, 100 mM NaCl, 10 mM MgCl2, 1 mM EDTA (pH 7.4) and aliquots were kept at −80° C. [^3H]-Spiperone Binding experiments were performed in 96 deep-well polypropylene plates in 50 mM Tris/HCl, 120 mM NaCl, 5 mM KCl, 5 mM MgCl2 (pH 7.4). […] Displacement was performed in the presence of 0.08 nM [^3H]-Spiperone. The reaction was initiated by the addition of membrane suspension (2 μg of protein for CHO-hD2 membranes) and lasted for 120 min at 23° C. in a final volume of 1000 μl. Non specific binding (NSB) was determined in the presence of 0.1 μM Spiperone. The binding reaction was stopped by rapid filtration through GF/B filterplates pre-soaked in 0.5% polyetylenimmine (PEI) using a Packard cell harvester. After washing with ice-cold 0.9% NaCl, the plate was left to dry before the addition of Microscint 20 (50 μl/well, PerkinElmer). Radioactivity was counted with a TopCount (PerkinElmer). […] Saturation binding experiments were performed similar to the competition binding experiments using a radioligand concentrations ranging from 0.011 to 3.0 nM. […] Is Clozapine selective for the dopamine D4 receptor? […] Real-time analysis of dopamine: antagonist interactions at recombinant human D2long receptor upon modulation of its activation state. Brit. J.

[2] = molecular target: human dopamine type 3 receptor (hD3) (Homo sapiens (Human), UniProt P35462); experiment: [3H]-Spiperone binding assay at hD3 recombinant receptor (CHO-hD3 membranes); conditions: pKi only estimated to be accurate to about ±0.3-0.5
human dopamine type 3 receptor (hD3), sequence (P35462 whole entry): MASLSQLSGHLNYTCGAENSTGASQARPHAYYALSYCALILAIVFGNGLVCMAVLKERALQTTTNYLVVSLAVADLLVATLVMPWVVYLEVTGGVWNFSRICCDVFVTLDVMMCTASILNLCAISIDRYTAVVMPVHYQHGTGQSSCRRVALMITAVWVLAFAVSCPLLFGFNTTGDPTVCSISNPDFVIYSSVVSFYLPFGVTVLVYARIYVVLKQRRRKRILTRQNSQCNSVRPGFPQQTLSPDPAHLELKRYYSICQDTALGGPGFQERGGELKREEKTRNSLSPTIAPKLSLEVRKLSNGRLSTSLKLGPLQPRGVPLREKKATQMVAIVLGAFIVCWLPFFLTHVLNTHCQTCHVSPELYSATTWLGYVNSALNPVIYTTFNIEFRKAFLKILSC
Experimental: [^3H]-Spiperone Binding Assay at hD3 and hD4 recombinant receptors CHO cells transiently transfected with human dopamine type 3 or 4 receptors (CHO-hD3 or CHO-hD4, respectively), were re-suspended in 20 mM HEPES, 2 mM EDTA (pH 7.4), homogenised and centrifuged at 40,000 g (20 min, 4° C.). After re-suspension, homogenization and centrifugation as above, the final pellet was re-suspended in 20 mM HEPES, 100 mM NaCl, 10 mM MgCl2, 1 mM EDTA (pH 7.4) and aliquots were kept at −80° C. [^3H]-Spiperone Binding experiments were performed in 96 deep-well polypropylene plates in 50 mM Tris/HCl, 120 mM NaCl, 5 mM KCl, 5 mM MgCl2 (pH 7.4). Compounds of invention were serially diluted in DMSO at 100 fold final concentrations in the assay (1% DMSO final in the assay). Displacement was performed in the presence of 0.3 nM [^3H]-Spiperone. The reaction was initiated by the addition of membrane suspension (4 μg and 12 μg of protein for CHO-hD3- and CHO-hD4 membranes, respectively) and lasted for 90 or 100 min (for hD3 or hD4 membranes, respectively) at 23° C. in a final volume of 500 μl. Non specific binding (NSB) was determined in the presence of 1 μM Spiperone. The binding reaction was stopped by rapid filtration through GF/B filterplates pre-soaked in 0.5% polyetylenimmine (PEI) using a Packard cell harvester. After washing with ice-cold 0.9% NaCl, the plate was left to dry before the addition of Microscint 20 ([…], PerkinElmer). Radioactivity was counted with a TopCount (PerkinElmer). Data were analysed by non-linear regression analysis using GraphPad Prism 5.0 (GraphPad Software). Saturation binding experiments were performed similar to the competition binding experiments using a radioligand concentrations ranging from 0.015 to 4.0 nM. […] Characterization of the human dopamine D3 receptor expressed in transfected cell lines.

Row | Compound | D2 p Ki [1] | D3 p Ki [2]
1 | Cn1c(SCCCN2CCOC(c3ccc(C(F)(F)F)cc3)C2)nnc1-c1ccc(C(N)=O)cc1 (single isomer, unassigned) [Example 13, 4-[4-methyl-5-({3-[(2R or 2S)-2-[4-(trifluoromethyl)phenyl]morpholin-4-yl]propyl}sulfanyl)-4H-1,2,4-triazol-3-yl]benzamide] | 4.86 | 7.94
2 | Cn1c(SCCCN2CCOC(c3ccc(C(F)(F)F)cc3)C2)nnc1-c1ccc(-c2ncco2)cc1 (single isomer, unassigned) [Example 15, (2S or 2R)-4-[3-({4-methyl-5-[4-(1,3-oxazol-2-yl)phenyl]-4H-1,2,4-triazol-3-yl}sulfanyl)propyl]-2-[4-(trifluoromethyl)phenyl]morpholine] | 4.81 | 6.36
3 | Cn1c(SCCCN2CCOC(c3ccc(C(F)(F)F)cc3)C2)nnc1-c1ccc(-c2ncco2)cc1 (single isomer, unassigned) [Example 16, (2R or 2S)-4-[3-({4-methyl-5-[4-(1,3-oxazol-2-yl)phenyl]-4H-1,2,4-triazol-3-yl}sulfanyl)propyl]-2-[4-(trifluoromethyl)phenyl]morpholine] | 5.28 | 8.23
4 | Cn1c(SCCCN2CCOC(c3ccc(C(F)(F)F)cc3)C2)nnc1-c1ccc(C(N)=O)cc1 (stereo not drawn) [Example 11, 4-{4-methyl-5-[(3-{2-[4-(trifluoromethyl)phenyl]-morpholin-4-yl}propyl)sulfanyl]-4H-1,2,4-triazol-3-yl}benzamide] | 4.96 | 7.46
5 | Cn1c(SCCCN2CCOC(c3ccc(C(F)(F)F)cc3)C2)nnc1-c1ccc(-c2ncco2)cc1 (stereo not drawn) [Example 14, 4-[3-({4-methyl-5-[4-(1,3-oxazol-2-yl)phenyl]-4H-1,2,4-triazol-3-yl}sulfanyl)propyl]-2-[4-(trifluoromethyl)phenyl]morpholine] | 5.83 | 8.31
6 | Cn1c(SCCCN2CCOC(c3ccc(C(F)(F)F)cc3)C2)nnc1-c1cccnc1 (stereo not drawn) [Example 18, 4-(3-{[4-methyl-5-(pyridin-3-yl)-4H-1,2,4-triazol-3-yl]sulfanyl}propyl)-2-[4-(trifluoromethyl)phenyl]morpholine] | 4.83 | 6.77
7 | Cn1c(SCCCN2CCOC(c3ccc(C(F)(F)F)cc3)C2)nnc1-c1cnccn1 (stereo not drawn) [Example 19, 4-(3-{[4-methyl-5-(pyrazin-2-yl)-4H-1,2,4-triazol-3-yl]sulfanyl}propyl)-2-[4-(trifluoromethyl)phenyl]morpholine] |  | 6.76
8 | Cn1c(SCCCN2CCOC(c3ccc(C(F)(F)F)cc3)C2)nnc1-c1ccc(C(N)=O)nc1 (stereo not drawn) [Example 20, 5-{4-methyl-5-[(3-{2-[4-(trifluoromethyl)phenyl]morpholin-4-yl}propyl)sulfanyl]-4H-1,2,4-triazol-3-yl}pyridine-2-carboxamide] |  | 7.45
9 | Cn1c(SCCCN2CCOC(c3ccc(C(F)(F)F)cc3)C2)nnc1-c1ccc(-n2cnnc2)cc1 (stereo not drawn) [Example 21, 4-[3-({4-methyl-5-[4-(4H-1,2,4-triazol-4-yl)phenyl]-4H-1,2,4-triazol-3-yl}sulfanyl)propyl]-2-[4-(trifluoromethyl)phenyl]morpholine] | 5.04 | 6.9
10 | Cn1c(SCCCN2CCOC(c3ccc(C(F)(F)F)cc3)C2)nnc1-c1ccc(C(N)=O)cn1 (stereo not drawn) [Example 22, 6-{4-methyl-5-[(3-{2-[4-(trifluoromethyl)phenyl]morpholin-4-yl}propyl)sulfanyl]-4H-1,2,4-triazol-3-yl}pyridine-3-carboxamide] | 4.79 | 7
11 | Cn1c(SCCCN2CCOC(c3ccc(C(F)(F)F)cc3)C2)nnc1-c1cccc(C(N)=O)c1 (stereo not drawn) [Example 23, 3-{4-methyl-5-[(3-{2-[4-(trifluoromethyl)phenyl]morpholin-4-yl}propyl)sulfanyl]-4H-1,2,4-triazol-3-yl}benzamide] | 4.82 | 6.53
12 | Cn1cccc1-c1nnc(SCCCN2CCOC(c3ccc(C(F)(F)F)cc3)C2)n1C (stereo not drawn) [Example 24] | 5.18 | 6.9
13 | Cn1c(SCCCN2CCOC(c3ccc(C(F)(F)F)cc3)C2)nnc1C1CCCCC1 (stereo not drawn) [Example 25, 4-{3-[(5-cyclohexyl-4-methyl-4H-1,2,4-triazol-3-yl)sulfanyl]propyl}-2-[4-(trifluoromethyl)phenyl]morpholine] | 5.05 | 7.36
14 | Cn1c(SCCCN2CCOC(c3ccc(C(F)(F)F)cc3)C2)nnc1-c1nccs1 (stereo not drawn) [Example 26, 4-(3-{[4-methyl-5-(1,3-thiazol-2-yl)-4H-1,2,4-triazol-3-yl]sulfanyl}propyl)-2-[4-(trifluoromethyl)phenyl]morpholine] | 5.14 | 6.55
15 | Cn1nccc1-c1nnc(SCCCN2CCOC(c3ccc(C(F)(F)F)cc3)C2)n1C (stereo not drawn) [Example 27, 4-(3-{[4-methyl-5-(1-methyl-1H-pyrazol-5-yl)-4H-1,2,4-triazol-3-yl]sulfanyl}propyl)-2-[4-(trifluoromethyl)phenyl]morpholine] | <5 | 6.16
16 | Cn1c(SCCCN2CCOC(c3ccc(C(F)(F)F)cc3)C2)nnc1-c1ccsc1 (stereo not drawn) [Example 28] | 5.06 | 6.95
17 | Cn1c(SCCCN2CCOC(c3ccc(C(F)(F)F)cc3)C2)nnc1-c1ccc(-c2nnco2)cc1 (stereo not drawn) [Example 29, 4-[3-({4-methyl-5-[4-(1,3,4-oxadiazol-2-yl)phenyl]-4H-1,2,4-triazol-3-yl}sulfanyl)propyl]-2-[4-(trifluoromethyl)phenyl]morpholine] | 4.91 | 7.79
18 | Cc1nc(-c2ccc(-c3nnc(SCCCN4CCOC(c5ccc(C(F)(F)F)cc5)C4)n3C)cc2)no1 (stereo not drawn) [Example 30, 4-[3-({4-methyl-5-[4-(5-methyl-1,2,4-oxadiazol-3-yl)phenyl]-4H-1,2,4-triazol-3-yl}sulfanyl)propyl]-2-[4-(trifluoromethyl)phenyl]morpholine] | <5 | 7.63
19 | Cn1c(SCCCN2CCOC(c3ccc(C(F)(F)F)cc3)C2)nnc1-c1ccc(C#N)cc1 (stereo not drawn) [Example 31, 4-{4-methyl-5-[(3-{2-[4-(trifluoromethyl)phenyl]morpholin-4-yl}propyl)sulfanyl]-4H-1,2,4-triazol-3-yl}benzonitrile] | 4.95 | 6.97
20 | Cn1c(SCCCN2CCOC(c3ccc(C(F)(F)F)cc3F)C2)nnc1-c1ccc(C(N)=O)cc1 (stereo not drawn) [Example 35] |  | 7.06
21 | Cc1ccc(C2CN(CCCSc3nnc(-c4ocnc4C)n3C)CCO2)cc1 (stereo not drawn) [Example 36, 4-(3-{[4-methyl-5-(4-methyl-1,3-oxazol-5-yl)-4H-1,2,4-triazol-3-yl]sulfanyl}propyl)-2-(4-methylphenyl)morpholine] |  | 6.17
22 | Cc1ncoc1-c1nnc(SCCCN2CCOC(c3ccc(Br)cc3)C2)n1C (stereo not drawn) [Example 38, 2-(4-bromophenyl)-4-(3-{[4-methyl-5-(4-methyl-1,3-oxazol-5-yl)-4H-1,2,4-triazol-3-yl]sulfanyl}propyl)morpholine] |  | 6.72

Source: patent US10577361B2, “Dopamine D3 receptor antagonists having a morpholine moiety” (Indivior UK Limited, priority 2015, dated 2020)
